{"source": "paper PMC9865645", "about": "“The Impact of N^ε-Acryloyllysine Piperazides on the Conformational Dynamics of Transglutaminase 2” (International Journal of Molecular Sciences, 2023)", "target": "T1, self-produced hTGase 2 (Homo sapiens, UniProt P21980)", "T1 construct": "thrombin cleavage site (N); made in house; host or cells: E. coli BL21(DE3)", "T1 sequence (P21980 1-687)": "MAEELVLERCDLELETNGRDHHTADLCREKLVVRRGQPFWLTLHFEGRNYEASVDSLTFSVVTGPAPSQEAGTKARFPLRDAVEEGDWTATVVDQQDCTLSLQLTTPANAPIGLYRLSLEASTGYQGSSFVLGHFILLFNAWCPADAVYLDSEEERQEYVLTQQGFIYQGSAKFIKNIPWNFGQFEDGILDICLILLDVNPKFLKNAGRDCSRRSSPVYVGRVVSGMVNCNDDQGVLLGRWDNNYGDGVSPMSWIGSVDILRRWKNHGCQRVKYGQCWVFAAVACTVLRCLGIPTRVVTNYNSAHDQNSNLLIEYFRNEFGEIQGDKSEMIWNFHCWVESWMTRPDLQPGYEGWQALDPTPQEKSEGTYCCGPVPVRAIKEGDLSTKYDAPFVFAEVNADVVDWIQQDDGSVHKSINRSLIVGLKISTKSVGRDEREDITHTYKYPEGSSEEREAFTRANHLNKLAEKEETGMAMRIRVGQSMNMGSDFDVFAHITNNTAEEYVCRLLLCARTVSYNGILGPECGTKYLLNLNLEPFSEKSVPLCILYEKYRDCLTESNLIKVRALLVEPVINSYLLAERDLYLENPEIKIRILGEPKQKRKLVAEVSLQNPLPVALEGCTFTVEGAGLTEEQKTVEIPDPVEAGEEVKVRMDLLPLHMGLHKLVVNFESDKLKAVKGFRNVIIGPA", "assay": "native (GTP-)PAGE: conformational species of hTGase 2", "settings": "pre-incubation with 500 µM GTPγS", "protocol": "Figure 7 Influence of inhibitors 1–3 on the activity and conformation of hTGase 2 in the absence and presence of Ca^2+ or/and GTPγS. Native (GTP-)PAGE was performed on 7% separating gels. The gel and the running buffer contained either no GTP (A) or 50 µM GTP (B). Samples of 8.23 µM self-produced hTGase 2 were incubated for 30 min at 20 °C in 100 mM MOPS pH 8.0, 100 mM NaCl, 5.33% (v/v) glycerol with CaCl2, DMSO or inhibitors 1–3 (2.12% DMSO), and GTPγS as indicated. After adding native loading buffer, 6 µL of each sample containing 3 µg of hTGase 2 was loaded onto the gel. After the electrophoretic separation, gels were stained with Coomassie Brilliant Blue G250, scanned, and the protein bands were quantified (Figure S6 in Supplementary Materials). […]\nSodium dodecyl sulfate-PAGE (SDS-PAGE) and native PAGE were performed on 4% stacking and 7% separating gels using Laemmli buffers (60 min with 120 V, 300 mA and 30 W at room temperature) and the same buffers without SDS (80 min with 120 V, 50 mA and 30 W at 4 °C), respectively. […] Afterward, the gels were scanned using a LI-COR Odyssey Fc Imager (700 channel) and analyzed using Image Studio software version 5.2.5. Detected bands were quantified based on the general procedure published by Wagstaff et al. and as detailed in legends to Figures S5 and S6. […]", "data": [{"smiles": "Nc1nc2c(ncn2[C@@H]2O[C@H](COP(=O)(O)OP(=O)(O)OP(O)(O)=S)[C@@H](O)[C@H]2O)c(=O)[nH]1", "note": "[GTPγS]", "values": [{"measurement": "effect on migrating hTGase 2 species", "value": "favors the fast migrating hTGase 2 species"}]}]}
